# Source: US9241976B2, “Use of HDL-related molecules to treat and prevent proinflammatory conditions” (THE REGENTS OF THE UNIVERSITY OF CALIFORNIA, priority 2011, dated 2016)
# Legend:
# cyclin D1 and cyclin A = test: Western blot of cyclin D1 and cyclin A in CT26 cells; type: cell-based, mouse
# Protocol: Total cell proteins were collected after treatment in cell lysis buffer containing 0.1 mol/L NaCl, 5 mmol/L EDTA, 50 mmol/L sodium orthovanadate, 1% Triton X-100, and protease inhibitor tablet in 50 mmol/L Tris buffer (pH 7.5). Twenty micrograms of total proteins were separated by SDS-PAGE and transferred onto nitrocellulose membrane and followed by incubation with primary antibody at 4° C. in 5% skim milk and 0.1% Tween-20. Anti-cyclin D1 and anti-cyclin A rabbit polyclonal antibodies were used at 1:1,000 dilution, and anti-b-actin polyclonal antibody was used at 1:2,000 dilution.
# [1] = reference (17); cited from earlier work
# CT26 cells [2] = test: Pulmonary metastasis in vivo: CT26 lung tumors in BALB/c mice; set-up: species or system mouse; conditions: CT26 via tail vein
# Protocol: BALB/c mice were intravenously injected with 2×10^4 CT26 cells in 100 μL of PBS via tail vein injection and the mice were treated with bHDL at 10 mg/kg/day administered SQ for 3 weeks; or treated with bHDL at 100 mg/kg/day administered in a chow diet for 3 weeks. After 3 weeks treatment, the mice were sacrificed; lungs were harvested, weighed and fixed with Bouin's solution (Sigma). Tumor nodules on the lung surface were counted.
# BALB/c mice were intravenously injected with 2×10^4 CT26 cells in […] of PBS via tail vein injection and the mice were treated with L-4F or sc-4F at 10 mg/kg/d administered subcutaneously for 3 weeks, or treated with sc-4F or L-4F or G* peptide at 100 mg/kg/d administered in a chow diet for 3 weeks. After 3 weeks treatment, the mice were sacrificed; lungs were harvested, weighed, and fixed with Bouin solution (Sigma). Tumor nodules on the lung surface were counted.
# HIF-1α [3] = test: ID8 flank tumor model, HIF-1α immunohistochemistry; type: in vivo, mouse; conditions: C57BL/6J mice, ID8 tumors; 10 mg/kg s.c. daily for 3 weeks; vs sc-4F
# Protocol: Nine-week-old C57BL/6J female mice were given a 0.5-ml subcutaneous injection of 5×10^6 ID8 cells prepared as a single cell suspension in PBS mixed with an equal volume of cold Matrigel (BD Biosciences, San Jose, Calif.). After 2 weeks, mice started to receive scrambled 4F peptide (sc-4F) or L-4F (10 mg/kg) by subcutaneous injection at a site distant from the site where the ID8 cells were injected daily for 3 weeks. After 3 weeks, the mice were sacrificed for tumor collection and further analyses.
# Frozen tumor tissues were sectioned at a thickness of 5 μm and fixed with cold acetone for 10 min at −20° C. The sections were blocked with 10% normal goat serum and 4% bovine serum albumin prepared in PBS for 3 h and immediately incubated with rabbit anti-mouse polyclonal HIF-1α antibody (1:200) (Abcam Inc.) or rat anti-mouse monoclonal CD31 antibody (1:25) (Abcam Inc.) overnight at 4° C. The sections were then incubated with corresponding biotinylated secondary antibodies (Vector Laboratories) for 30 min at room temperature followed by incubation with Vectastain ABC Elite reagents (Vector Laboratories) to visualize the staining. Finally, sections were lightly counterstained with hematoxylin, dehydrated, and coverslipped with Vecta-Mount solution (Vector Laboratories).
# CT26 cells [4] = test: CT26 proliferation assay (BrdU incorporation); type: cell-based, mouse; conditions: Example 5; 10 mg/mL, 48 hours
# Protocol: The bHDL were dissolved in H2O.
# The peptides were dissolved in H2O.
# CT26 cells [5] = test: CT26 cell viability, MTS assay; conditions: Example 6; MTS assay, within 48 hours of treatment
# Protocol: (§2) CT26 cell line derived from N-nitroso-N-methyl urethane-induced mouse colon carcinoma of BALB/c origin was purchased from the American Type Culture Collection (ATCC). CT26 cells (2,000 cells per well) were first cultured in complete medium in 96-well culture plates, and 24 hours later the medium was replaced with serum free medium. Following an overnight incubation, the cells were either treated with vehicle (control), or treated with 10 μg/mL of either bHDL. The bHDL were dissolved in H2O. Cells were incubated for an additional 48 hours and assayed for viability using the MTS assays kit (Promega) according to the manufacturer's protocol.
# (§3) CT26 cell line derived from N-nitroso-N-methyl urethane-induced mouse colon carcinoma of BALB/c origin was purchased from the American Type Culture Collection. CT26 cells (2,000 cells per well) were first cultured in complete medium in 96-well culture plates, and 24 hours later the medium was replaced with serum-free medium. Following an overnight incubation, the cells were either treated with vehicle (control) or treated with 10 mg/mL of either L-4F or G* peptide. The peptides were dissolved in H2O. Cells were incubated for an additional 48 hours and assayed for viability using the MTS assay kit (Promega) according to the manufacturer's protocol.
# CT26 cells [6] = conditions: BALB/c, mouse, 48 hours
# Protocol: as §2, §3
# [7] = system: HDL anti-inflammatory properties; conditions: 0.43 mg/kg daily, intravenous infusion 7 days or subcutaneously 28 days, patients with coronary heart disease (Watson and colleagues); cited from earlier work
# APC^min/+ mice = APC^min/+ mice study, intestinal tumors; type: in vivo; conditions: C57BL/6J-APC^min/+ mice; 100 mg/kg/d in mouse chow for 8 weeks
# Protocol: (§1) 6-week-old APC^Min/+ male mice on a C57BL/6J background were treated with bHDL 100 mg/kg/day administered in a chow diet. After 8 weeks treatment, mice were sacrificed. The entire intestine was immediately removed, fixed in formalin and 70% ethanol. The intestine was opened and examined under a dissecting microscope to count and measure the tumors.
# as §1, with “Six-week-oldAPC^min/+” for “6-week-old APC^Min/+”, “L-4F or sc-4F at” for “bHDL”, “mg/kg/d” for “mg/kg/day”
# ID8 cells = conditions: cited from earlier work
# [8] = system: cis-platinum-resistant human ovarian cancer cells; conditions: reference (17); cited from earlier work
# HIF-1α [9] = test: Immunofluorescence staining of nuclear HIF-1α in OV2008 cells; type: cell-based, human
# Protocol: Immunofluorescence staining was performed as described previously (Lee et al., 2006). In brief, OV2008 cells were plated onto a glass slip (Thermo Fisher Scientific) in 24-well plates at 4×10^4 cells per well and grown in complete medium overnight. After starvation overnight, cells were subjected to L-4F treatment in the presence or absence of stimulators. Then, cells were fixed in 4% neutral buffered formaldehyde for 25 min at room temperature, permeabilized with 0.5% Triton X-100 in PBS for 10 min, and blocked with 10% normal goat serum, 1% bovine serum albumin, and 0.3 M glycine prepared in PBS for 1 h. Cells were incubated with mouse anti-HIF-1α (1:200) overnight at 4° C. and incubated with Alexa Fluor 568 goat anti-mouse IgG (Invitrogen) for 1 h. Finally, cells were covered with VectaMount solution containing DAPI (Vector Laboratories, Burlingame, Calif.), and images were captured with a fluorescence microscope (Olympus IX70).
# [10] = 10 mg/kg/d subcutaneously for 3 weeks
# [11] = 100 mg/kg/d in chow diet for 3 weeks
substance,measurement,setting,value
"Ac-DWFKAFYDKVAEKFKEAF-NH2 [L-4F, Ac-D-W-F-K-A-F-Y-D-K-V-A-E-K-F-K-E-A-F-NH2]",expression of cyclin D1 and cyclin A,cyclin D1 and cyclin A,significantly lower
same,binding of LPA,[1],binds
same,lung weights,CT26 cells [2]; [10],225 mg
same,tumor numbers counted on the lung surface,CT26 cells [2]; [10],18
same,lung weights,CT26 cells [2]; [11],238 mg
same,tumor numbers on the lung surface,CT26 cells [2]; [11],12
same,HIF-1α expression in tumor tissues,HIF-1α [3],decreased
same,"proliferation of CT26 cells, BrdUrd incorporation",CT26 cells [4],significantly inhibited
same,CT26 cell viability vs vehicle-treated controls,CT26 cells [5],reduced cell viability
same,"Cell viability reduced by, compared with control",CT26 cells [6]; 10 μg/mL,more than 20%
same,"Cell viability reduced, compared with control",CT26 cells [6]; 10 mg/mL,more than 25%
same,HDL anti-inflammatory properties,[7],did not achieve any improvement
same,numbers of tumors of diameter 1-3 mm,APC^min/+ mice,36.8
same,numbers of tumors of diameter >3 mm,APC^min/+ mice,5
same,"total tumor numbers in the intestinal tract, percent of the control",APC^min/+ mice,60%
same,ID-8 cell-mediated tumor burden,"ID8 cells; C57BL/6J mice, administered subcutaneously or orally, reference (17)",decreased
same,tumor growth and angiogenesis,"ID8 cells; immunocompetent mouse model of ovarian cancer, ID8 (Gao et al., 2011)",inhibited
same,viability and proliferation,[8],reduced
same,"nuclear expression of HIF-1α, post-treatment","HIF-1α [9]; OV2008 cells stimulated first with CoCl2 or insulin, 10 μg/ml",decreased nuclear expression
same,CoCl2- and insulin-induced accumulation of HIF-1α in nuclei,"HIF-1α [9]; OV2008 cells, pretreatment",dramatically reversed
